Bridge positions count the residues as written; N and C are the ends. Square brackets hold non-standard residues; d marks the D form. Peptide text beside a SMILES is read from it. * marks the point of attachment. ξ: configuration not given here. DOTA = O=C(O)CN1CCN(CC(=O)O)CCN(CC(=O)*)CCN(CC(=O)O)CC1; Trp(5-F) = N[C@@H](Cc1c[nH]c2ccc(F)cc12)C(=O)O; Phe(2-CF3) = N[C@@H](Cc1ccccc1C(F)(F)F)C(=O)O; Trp(7-aza) = N[C@@H](Cc1c[nH]c2ncccc12)C(=O)O; Pro(trans-4-F) = O=C(O)[C@@H]1C[C@@H](F)CN1; Phe(4-F) = N[C@@H](Cc1ccc(F)cc1)C(=O)O; 2Nal = N[C@@H](Cc1ccc2ccccc2c1)C(=O)O; Gly(4-THP) = N[C@H](C(=O)O)C1CCOCC1; Nva(3-Et) = CCC(CC)[C@H](N)C(=O)O; β3hF = N[C@H](CC(=O)O)Cc1ccccc1; Cha = N[C@@H](CC1CCCCC1)C(=O)O; Cba = N[C@@H](CC1CCC1)C(=O)O; Chg = N[C@H](C(=O)O)C1CCCCC1; Tle = CC(C)(C)[C@H](N)C(=O)O; Nle = CCCC[C@H](N)C(=O)O; Aze = O=C(O)[C@@H]1CCN1; ξK = NCCCCC(N)C(=O)O
Biological target: T1, human DLL3 (Homo sapiens, UniProt Q9NYJ7)
T1 sequence (Q9NYJ7 27-618): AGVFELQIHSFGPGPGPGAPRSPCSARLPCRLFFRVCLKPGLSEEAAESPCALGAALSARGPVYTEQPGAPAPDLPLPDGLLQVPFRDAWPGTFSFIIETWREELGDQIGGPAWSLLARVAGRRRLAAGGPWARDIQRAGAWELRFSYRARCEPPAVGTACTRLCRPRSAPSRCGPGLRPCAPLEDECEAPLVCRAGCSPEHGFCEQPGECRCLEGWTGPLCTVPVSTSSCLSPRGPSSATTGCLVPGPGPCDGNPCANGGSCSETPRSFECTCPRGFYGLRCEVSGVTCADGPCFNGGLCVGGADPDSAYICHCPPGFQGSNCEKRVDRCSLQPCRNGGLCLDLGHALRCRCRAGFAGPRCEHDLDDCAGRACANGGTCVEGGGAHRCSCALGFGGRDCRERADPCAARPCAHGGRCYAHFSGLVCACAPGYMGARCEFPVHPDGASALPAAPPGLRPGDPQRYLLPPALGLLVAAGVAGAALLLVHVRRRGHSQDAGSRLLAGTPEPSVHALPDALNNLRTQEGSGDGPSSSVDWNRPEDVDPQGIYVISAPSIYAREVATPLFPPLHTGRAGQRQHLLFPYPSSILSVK
Experiment: Affinity determination by Surface Plasmon Resonance (SPR)
Format: binding
Conditions: 25° C., biotinylated human DLL3 immobilized on streptavidin sensor chip, 1:1 binding model; read-out: SPR KD
Description: SPR studies were performed on the compounds disclosed herein using the following protocol.
Biotinylated target ligand human DLL3 was immobilized on a streptavidin sensor chip. A reference surface was set up for nonspecific binding and refractive index changes. For analysis of the kinetics of interactions, varying concentrations of samples were injected at a flow rate of 100 μL/minute using running buffer containing 20 mM phosphate buffer with 2.7 mM KCl, 137 mM NaCl, 0.05% Surfactant P20 and 2% DMSO. Sensorgram curves were fitted with 1:1 binding model, and affinity and kinetic parameters were obtained using Biacore Insight evaluation 4.0. software.

Kd [nM] | SMILES
10 to 100 | CC(=O)N[C@@H](Cc1c[nH]c2ccc(F)cc12)C(=O)N[C@H](C(=O)N[C@H](C(=O)N[C@H]1CSSC[C@@H](C(=O)N[C@@H](Cc2c[nH]c3ncccc23)C(=O)N2CC[C@H]2C(=O)NC(CCCCNC(=O)CN2CCN(CC(=O)O)CCN(CC(=O)O)CCN(CC(=O)O)CC2)C(N)=O)NC(=O)[C@H](CC(=O)O)NC(=O)[C@H](Cc2cnc[nH]2)NC(=O)[C@H](Cc2ccc(F)cc2)NC(=O)[C@H](CC(N)=O)NC(=O)[C@H](CC(N)=O)NC1=O)C(C)(C)C)[C@@H](C)O (stereo partly drawn) [compound 121, Ac-(5Fluoro-W)-T-(Tbg)-C(3)-N-N-(4Fluoro-F)-H-D-C(3)-(7Aza-W)-(Aze)-[D-Lys(DOTA)]-NH2] (Ac-[Trp(5-F)]T[Tle]CNN[Phe(4-F)]HDC[Trp(7-aza)][Aze][ξK](DOTA)-NH2; disulfide 4-10)
10 to 100 | CC(=O)N[C@@H](Cc1c[nH]c2ccc(F)cc12)C(=O)N[C@H](C(=O)N[C@H](C(=O)N[C@H]1CSSC[C@@H](C(=O)N[C@@H](Cc2c[nH]c3ncccc23)C(=O)N2CC[C@H]2C(=O)NC(CCCCNC(=O)CN2CCN(CC(=O)O)CCN(CC(=O)O)CCN(CC(=O)O)CC2)C(N)=O)NC(=O)[C@H](CC(=O)O)NC(=O)[C@H](Cc2cnc[nH]2)NC(=O)[C@H](Cc2ccc(F)cc2)NC(=O)[C@H](CC(N)=O)NC(=O)[C@H](CC(N)=O)NC1=O)C1CCOCC1)[C@@H](C)O (stereo partly drawn) [compound 123, Ac-(5Fluoro-W)-T-(THPG)-C(3)-N-N-(4Fluoro-F)-H-D-C(3)-(7Aza-W)-(Aze)-[D-Lys(DOTA)]-NH2] (Ac-[Trp(5-F)]T[Gly(4-THP)]CNN[Phe(4-F)]HDC[Trp(7-aza)][Aze][ξK](DOTA)-NH2; disulfide 4-10)
10 to 100 | CCCC[C@H](NC(=O)[C@@H](NC(=O)[C@H](Cc1c[nH]c2ccc(F)cc12)NC(C)=O)[C@@H](C)O)C(=O)N[C@H]1CSSC[C@@H](C(=O)N[C@@H](Cc2c[nH]c3ncccc23)C(=O)N2CC[C@H]2C(=O)NC(CCCCNC(=O)CN2CCN(CC(=O)O)CCN(CC(=O)O)CCN(CC(=O)O)CC2)C(N)=O)NC(=O)[C@H](CC(=O)O)NC(=O)[C@H](Cc2cnc[nH]2)NC(=O)[C@H](Cc2ccc(F)cc2)NC(=O)[C@H](CC(N)=O)NC(=O)[C@H](CC(N)=O)NC1=O (stereo partly drawn) [compound 124, Ac-(5Fluoro-W)-T-(Nle)-C(3)-N-N-(4Fluoro-F)-H-D-C(3)-(7Aza-W)-(Aze)-[D-Lys(DOTA)]-NH2] (Ac-[Trp(5-F)]T[Nle]CNN[Phe(4-F)]HDC[Trp(7-aza)][Aze][ξK](DOTA)-NH2; disulfide 4-10)
1 to 10 | CC(=O)N[C@@H](Cc1c[nH]c2ccc(F)cc12)C(=O)N[C@H](C(=O)N[C@@H](CC1CCCCC1)C(=O)N[C@H]1CSSC[C@@H](C(=O)N[C@@H](Cc2c[nH]c3ncccc23)C(=O)N2CC[C@H]2C(=O)N[C@H](CCCCNC(=O)CN2CCN(CC(=O)O)CCN(CC(=O)O)CCN(CC(=O)O)CC2)C(N)=O)NC(=O)[C@H](CC(=O)O)NC(=O)[C@H](Cc2cnc[nH]2)NC(=O)[C@H](Cc2ccc(F)cc2)NC(=O)[C@H](CC(N)=O)NC(=O)[C@H](CC(N)=O)NC1=O)[C@@H](C)O [compound 125, Ac-(5Fluoro-W)-T-(CHA)-C(3)-N-N-(4Fluoro-F)-H-D-C(3)-(7Aza-W)-(Aze)-[D-Lys(DOTA)]-NH2] (Ac-[Trp(5-F)]T[Cha]CNN[Phe(4-F)]HDC[Trp(7-aza)][Aze][dK](DOTA)-NH2; disulfide 4-10)
10 to 100 | CC(=O)N[C@@H](Cc1c[nH]c2ccc(F)cc12)C(=O)N[C@H](C(=O)N[C@@H](CC1CCC1)C(=O)N[C@H]1CSSC[C@@H](C(=O)N[C@@H](Cc2c[nH]c3ncccc23)C(=O)N2CC[C@H]2C(=O)N[C@H](CCCCNC(=O)CN2CCN(CC(=O)O)CCN(CC(=O)O)CCN(CC(=O)O)CC2)C(N)=O)NC(=O)[C@H](CC(=O)O)NC(=O)[C@H](Cc2cnc[nH]2)NC(=O)[C@H](Cc2ccc(F)cc2)NC(=O)[C@H](CC(N)=O)NC(=O)[C@H](CC(N)=O)NC1=O)[C@@H](C)O [compound 126, Ac-(5Fluoro-W)-T-(CBA)-C(3)-N-N-(4Fluoro-F)-H-D-C(3)-(7Aza-W)-(Aze)-[D-Lys(DOTA)]-NH2] (Ac-[Trp(5-F)]T[Cba]CNN[Phe(4-F)]HDC[Trp(7-aza)][Aze][dK](DOTA)-NH2; disulfide 4-10)
10 to 100 | CC(=O)N[C@@H](Cc1c[nH]c2ccc(F)cc12)C(=O)N[C@H](C(=O)N[C@H](C(=O)N[C@H]1CSSC[C@@H](C(=O)N[C@@H](Cc2c[nH]c3ncccc23)C(=O)N2CC[C@H]2C(=O)N[C@H](CCCCNC(=O)CN2CCN(CC(=O)O)CCN(CC(=O)O)CCN(CC(=O)O)CC2)C(N)=O)NC(=O)[C@H](CC(=O)O)NC(=O)[C@H](Cc2cnc[nH]2)NC(=O)[C@H](Cc2ccc(F)cc2)NC(=O)[C@H](CC(N)=O)NC(=O)[C@H](CC(N)=O)NC1=O)C1CCCCC1)[C@@H](C)O [compound 127, Ac-(5Fluoro-W)-T-(Chg)-C(3)-N-N-(4Fluoro-F)-H-D-C(3)-(7Aza-W)-(Aze)-[D-Lys(DOTA)]-NH2] (Ac-[Trp(5-F)]T[Chg]CNN[Phe(4-F)]HDC[Trp(7-aza)][Aze][dK](DOTA)-NH2; disulfide 4-10)

More lines, now with the values behind:

SMILES | Kd [nM]
CC[C@H](C)[C@H](NC(=O)[C@@H](NC(=O)[C@H](Cc1c[nH]c2ccccc12)NC(C)=O)[C@@H](C)O)C(=O)N[C@H]1CSSC[C@@H](C(=O)N[C@@H](Cc2c[nH]c3ccccc23)C(=O)N2C[C@H](F)C[C@H]2C(=O)N[C@H](CCCCNC(=O)CN2CCN(CC(=O)O)CCN(CC(=O)O)CCN(CC(=O)O)CC2)C(N)=O)NC(=O)[C@H](CC(=O)O)NC(=O)[C@H](Cc2c[nH]cn2)NC(=O)[C@H](Cc2c[nH]c3ccccc23)NC(=O)[C@H](CC(N)=O)NC(=O)[C@H](CC(N)=O)NC1=O [compound 113, Ac-W-T-I-C(3)-N-N-W-H-D-C(3)-W-(trans4Fluoro-P)-[D-Lys(DOTA)]-NH2] (Ac-WTICNNWHDCW[Pro(trans-4-F)][dK](DOTA)-NH2; disulfide 4-10) | < 1
CC(=O)N[C@@H](Cc1c[nH]c2ccccc12)C(=O)N[C@H](C(=O)N[C@@H](Cc1ccccc1C(F)(F)F)C(=O)N[C@H]1CSSC[C@@H](C(=O)N[C@@H](Cc2c[nH]c3ccccc23)C(=O)N2CCC[C@H]2C(=O)N[C@H](CCCCNC(=O)CN2CCN(CC(=O)O)CCN(CC(=O)O)CCN(CC(=O)O)CC2)C(N)=O)NC(=O)[C@H](CC(=O)O)NC(=O)[C@H](Cc2c[nH]cn2)NC(=O)[C@H](Cc2c[nH]c3ccccc23)NC(=O)[C@H](CC(N)=O)NC(=O)[C@H](CC(N)=O)NC1=O)[C@@H](C)O [compound 114, Ac-W-T-(2CF3-F)-C(3)-N-N-W-H-D-C(3)-W-P-[D-Lys(DOTA)]-NH2] (Ac-WT[Phe(2-CF3)]CNNWHDCWP[dK](DOTA)-NH2; disulfide 4-10) | < 1
CC(=O)N[C@@H](Cc1c[nH]c2ccccc12)C(=O)N[C@H](C(=O)N[C@H](CC(=O)N[C@H]1CSSC[C@@H](C(=O)N[C@@H](Cc2c[nH]c3ccccc23)C(=O)N2CCC[C@H]2C(=O)N[C@H](CCCCNC(=O)CN2CCN(CC(=O)O)CCN(CC(=O)O)CCN(CC(=O)O)CC2)C(N)=O)NC(=O)[C@H](CC(=O)O)NC(=O)[C@H](Cc2c[nH]cn2)NC(=O)[C@H](Cc2c[nH]c3ccccc23)NC(=O)[C@H](CC(N)=O)NC(=O)[C@H](CC(N)=O)NC1=O)Cc1ccccc1)[C@@H](C)O [compound 115, Ac-W-T-(2PhEt-A)-C(3)-N-N-W-H-D-C(3)-W-P-[D-Lys(DOTA)]-NH2] (Ac-WT[β3hF]CNNWHDCWP[dK](DOTA)-NH2; disulfide 4-10) | 1 to 10
CC(=O)N[C@@H](Cc1c[nH]c2ccccc12)C(=O)N[C@H](C(=O)N[C@@H](Cc1ccc2ccccc2c1)C(=O)N[C@H]1CSSC[C@@H](C(=O)N[C@@H](Cc2c[nH]c3ccccc23)C(=O)N2CCC[C@H]2C(=O)N[C@H](CCCCNC(=O)CN2CCN(CC(=O)O)CCN(CC(=O)O)CCN(CC(=O)O)CC2)C(N)=O)NC(=O)[C@H](CC(=O)O)NC(=O)[C@H](Cc2c[nH]cn2)NC(=O)[C@H](Cc2c[nH]c3ccccc23)NC(=O)[C@H](CC(N)=O)NC(=O)[C@H](CC(N)=O)NC1=O)[C@@H](C)O [compound 116, Ac-W-T-(2Nal)-C(3)-N-N-W-H-D-C(3)-W-P-[D-Lys(DOTA)]-NH2] (Ac-WT[2Nal]CNNWHDCWP[dK](DOTA)-NH2; disulfide 4-10) | 10 to 100
CCC(CC)[C@H](NC(=O)[C@@H](NC(=O)[C@H](Cc1c[nH]c2ccc(F)cc12)NC(C)=O)[C@@H](C)O)C(=O)N[C@H]1CSSC[C@@H](C(=O)N[C@@H](Cc2c[nH]c3ncccc23)C(=O)N2CC[C@H]2C(=O)NC(CCCCNC(=O)CN2CCN(CC(=O)O)CCN(CC(=O)O)CCN(CC(=O)O)CC2)C(N)=O)NC(=O)[C@H](CC(=O)O)NC(=O)[C@H](Cc2cnc[nH]2)NC(=O)[C@H](Cc2ccc(F)cc2)NC(=O)[C@H](CC(N)=O)NC(=O)[C@H](CC(N)=O)NC1=O (stereo partly drawn) [compound 122, Ac-(5Fluoro-W)-T-(Env)-C(3)-N-N-(4Fluoro-F)-H-D-C(3)-(7Aza-W)-(Aze)-[D-Lys(DOTA)]-NH2] (Ac-[Trp(5-F)]T[Nva(3-Et)]CNN[Phe(4-F)]HDC[Trp(7-aza)][Aze][ξK](DOTA)-NH2; disulfide 4-10) | 1 to 10
